Experimental data from US20040259192A1, “Method for cleaving the human growth hormone gh” (priority 2001, published 2004).
Entries after “also recorded” stand apart in the source; their conditions may differ. Values belong to the compound of their own block, whether it stands above or below them. Square brackets hold non-standard residues; d marks the D form. Ends that are not written are not given here. * marks the point of attachment. Sta = CC(C)C[C@H](N)[C@@H](O)CC(=O)O; Isovaleryl = CC(C)CC(=O)*

Key:
MMP-3 [1] = target: MMP-3 (Homo sapiens, UniProt P08254); assay: activation or inhibition of MMP-3 by substances; assay type: biochemical; parameters: inhibition (MMP-3): dose or concentration left out as unconfirmed; settings: for inhibition at 10 µM: with 10 μM
MMP-3 [2] = assay: cleavage of human GH by MMP-3, SDS-PAGE, with or without protease inhibitors; assay type: biochemical; settings: for influence on GH cleavage by MMP-3: inhibitor added in place of phenanthroline, concentration not given
Method: (§1) Human GH (SIGMA S-4776) was incubated with the recombinant catalytic domain of MMP-3 or with the activated full-length enzyme MMP-3 (EC 3.4.24.17) at a molar ratio of 50:1 at 37° C. overnight. 100 mM Tris-HCl, pH 7.5/100 mM NaCl/10 mM CaCl2/0.05% (w/v) Brij 35 served as incubation buffer. The following samples served as a control:
1. GH incubated with the same volume of buffer instead of MMP-3,
2. GH incubated with MMP-3 in the presence of 1 mM 1,10-phenanthroline (SIGMA P-9375) as MMP inhibitor.
(§2) The reaction is stopped by the addition of ¼ volume of 5 times reducing Laemmli buffer and incubation at 90° C. for 4 minutes. The samples were subsequently separated on a 15% SDS polyacrylamide gel according to a generally known method. The proteins were prepared by means of coomassie or silver staining.

MMP-9 = MMP-9 (Homo sapiens, UniProt P14780); assay: cleavage of human GH by MMP-9, SDS-PAGE; assay type: biochemical; settings: activated MMP-9; long incubation periods, different enzyme concentrations
Method: It was tested in an informing preliminary test whether MMP-9 can cleave human GH in vitro. As shown in Example 2, GH was in this case incubated with activated MMP-9 and subjected to PAA gel electrophoresis. […]
as §1, §2
(§3) In accordance with the method shown in Example 2, other human MMPs were also tested for checking the specificity of the GH cleavage by MMP-3.

[3] = tested on: Human microvascular endothelial cells (HUVEC); assay: proliferation of human microvascular endothelial cells (cell number, Coulter Counter); assay type: cell-based; settings: 24 hours
Method: Human microvascular endothelial cells (HUVEC) of the 3rd passage were kindly provided by Dr. Jurgen Salvetter (Leipzig University). These cells were prepared according to the information furnished by Norman and Karasek (49). HUVEC were used up to the 9th passage for the proliferation experiments. HUVEC were tested up to confluence in RPMI 1640 medium with additions of 10% (v/v) tested endotoxin-deficient fetal calf serum (Biochrom), 2 mM L-glutamine (GIBCO), 25 μg/ml endothelial cell growth supplement (SIGMA), 50 μg/ml streptomycin plus 50 units/ml penicillin (Life Technologies). The confluent cells were harvested by means of 5% trypsin/0.2% EDTA (BIOCHROM) at 37° C. for 5 minutes. A suspension of 10,000 cells in RPMI 1640 medium plus 2% (v/v) tested endotoxin-deficient fetal calf serum (Biochrom), 2 mM L-glutamine (GIBCO), 50 μg/ml streptomycin plus 50 units/ml penicillin (Life Technologies) were transferred to 24-well plates coated with 30 μg/ml type I collagen from calf skin (IBFB). […] The cells were washed with the same medium after 24 hours of incubation and removed using trypsin/EDTA and the cell number was determined in a Coulter Counter. […]

MMP-8 = MMP-8 (Homo sapiens, UniProt P22894); assay: cleavage of human GH by MMP-8, SDS-PAGE; assay type: biochemical; settings: method of Example 2
Method: as §1, §2, §3

MMP-14 = MMP-14 (Homo sapiens, UniProt P50281); assay: cleavage of human GH by MMP-14, SDS-PAGE; assay type: biochemical; settings: method of Example 2
Method: as §1, §2, §3

MMP-2 = target: T1, MMP-2 (Homo sapiens, UniProt P08253); assay: cleavage of human GH by MMP-2; assay type: biochemical
T1 sequence (P08253 110-660): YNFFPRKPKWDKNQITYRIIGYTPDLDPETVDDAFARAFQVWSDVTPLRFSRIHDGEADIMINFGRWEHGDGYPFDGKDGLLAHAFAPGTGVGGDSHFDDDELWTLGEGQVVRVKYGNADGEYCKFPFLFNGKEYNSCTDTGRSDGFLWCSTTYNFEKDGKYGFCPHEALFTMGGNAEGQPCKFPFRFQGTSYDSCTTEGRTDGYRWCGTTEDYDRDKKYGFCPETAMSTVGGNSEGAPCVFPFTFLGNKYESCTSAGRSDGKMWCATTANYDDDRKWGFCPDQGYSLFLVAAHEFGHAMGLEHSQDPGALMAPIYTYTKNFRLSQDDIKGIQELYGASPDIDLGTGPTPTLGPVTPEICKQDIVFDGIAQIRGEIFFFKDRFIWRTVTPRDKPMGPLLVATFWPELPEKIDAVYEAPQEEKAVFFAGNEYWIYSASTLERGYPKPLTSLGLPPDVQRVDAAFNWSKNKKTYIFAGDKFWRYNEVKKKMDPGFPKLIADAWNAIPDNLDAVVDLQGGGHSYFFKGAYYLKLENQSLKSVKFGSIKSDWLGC

Chain of MMP-3 (Homo sapiens, UniProt P08254) (P08254 100-477): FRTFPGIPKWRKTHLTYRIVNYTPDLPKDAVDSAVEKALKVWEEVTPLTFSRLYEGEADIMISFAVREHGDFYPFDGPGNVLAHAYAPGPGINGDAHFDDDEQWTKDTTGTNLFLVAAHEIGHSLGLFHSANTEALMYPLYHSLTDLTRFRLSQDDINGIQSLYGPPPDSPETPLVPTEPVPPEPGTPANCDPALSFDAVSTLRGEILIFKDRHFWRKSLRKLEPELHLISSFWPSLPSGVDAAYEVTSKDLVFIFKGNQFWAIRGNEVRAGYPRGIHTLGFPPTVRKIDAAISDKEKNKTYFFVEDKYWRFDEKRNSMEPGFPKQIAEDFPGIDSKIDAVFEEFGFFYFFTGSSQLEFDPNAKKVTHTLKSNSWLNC
Chain of MMP-9 (P14780 107-707 limits assumed): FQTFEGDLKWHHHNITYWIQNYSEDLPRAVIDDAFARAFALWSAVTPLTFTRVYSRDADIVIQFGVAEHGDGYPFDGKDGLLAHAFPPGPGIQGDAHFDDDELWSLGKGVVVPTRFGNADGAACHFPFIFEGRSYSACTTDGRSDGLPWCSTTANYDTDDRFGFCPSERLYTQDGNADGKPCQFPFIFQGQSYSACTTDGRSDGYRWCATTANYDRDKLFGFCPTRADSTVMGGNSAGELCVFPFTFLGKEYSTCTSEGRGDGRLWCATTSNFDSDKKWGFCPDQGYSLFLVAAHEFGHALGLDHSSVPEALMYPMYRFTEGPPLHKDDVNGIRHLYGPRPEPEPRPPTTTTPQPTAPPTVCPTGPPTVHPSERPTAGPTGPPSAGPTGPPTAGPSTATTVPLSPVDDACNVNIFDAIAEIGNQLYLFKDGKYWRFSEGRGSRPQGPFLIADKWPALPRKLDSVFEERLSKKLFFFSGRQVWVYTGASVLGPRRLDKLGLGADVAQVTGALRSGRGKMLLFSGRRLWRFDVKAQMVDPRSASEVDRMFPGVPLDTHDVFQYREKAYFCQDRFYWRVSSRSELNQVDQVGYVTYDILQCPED
Chain of MMP-8 (P22894 101-467): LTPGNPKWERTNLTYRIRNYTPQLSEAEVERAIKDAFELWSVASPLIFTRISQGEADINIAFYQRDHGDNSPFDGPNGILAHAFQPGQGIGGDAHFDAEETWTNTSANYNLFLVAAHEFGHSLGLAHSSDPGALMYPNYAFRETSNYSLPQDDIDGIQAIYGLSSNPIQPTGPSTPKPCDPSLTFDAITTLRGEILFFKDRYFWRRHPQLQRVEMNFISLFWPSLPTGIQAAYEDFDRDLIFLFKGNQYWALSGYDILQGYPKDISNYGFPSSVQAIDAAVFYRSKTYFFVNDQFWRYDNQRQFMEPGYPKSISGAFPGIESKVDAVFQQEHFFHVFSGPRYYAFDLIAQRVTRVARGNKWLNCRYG

inhibition at 4 µM (MMP-3 [1]; with 4.0 μM): 75%
Compound: O=c1[nH]c(=O)n(CC(S)CS)c2ccccc12 (racemic) [(R,S)-1-(2′,3′-dimercapto-prop-1′-yl)quinazoline-2,4(1H,3H)-dione]

inhibition at 10 µM (MMP-3 [1]): 50%
Compound: O=c1c2ccccc2nc2n1CC(CS)S2 (racemic) [(R,S)-2-mercaptomethyl-2,3-dihydro-thiazolo[2,3-b]quinazoline-5-one]

inhibition (MMP-3) (MMP-3 [1]): 60%
Compound: CC1(CS)Cn2c(nc3ccccc3c2=O)S1 (racemic) [(R,S)-2-mercaptomethyl-2-methyl-2,3-dihydro-thiazolo[2,3-b]quinazoline-5-one]

inhibition at 10 µM (MMP-3 [1]): 80%
Compound: O=c1c2ccc(Cl)cc2nc2n1CC(CS)S2 (racemic) [(R,S)-8-chloro-2-mercaptomethyl-2,3-dihydro-thiazolo[2,3-b]quinazoline-5-one]

Compound: CC(C)C[C@H](NC(=O)[C@H]1O[C@@H]1C(=O)O)C(=O)NCCCCN=C(N)N (relative stereo) [E-64, trans-epoxysuccinyl-L-leucylamido-(4-guanidino)butane]
influence on GH cleavage by MMP-3 (MMP-3 [2]): no influence

activation of MMP-3 (MMP-3 [1]): about 20%
Compound: O=S1(=O)NC(NCCS)=Nc2ccccc21 [3-(2′-mercaptoethylamino)-2H-1,2,4-benzothiadiazine-1,1-dioxide]

activation of MMP-3 (MMP-3 [1]): about 20%
Compound: Cn1c(=O)n(CCCS)c(=O)c2ccccc21 [3-(3-mercaptopropyl)-1-methyl-(1H,3H)quinazoline-2,4-dione]

Compound: c1cnc2c(c1)ccc1cccnc12 [phenanthroline, 1,10-phenanthroline]
GH cleavage by MMP-3 in the presence of inhibitor (MMP-3 [2]; 1 mM inhibitor, GH:MMP-3 50:1, 37° C. overnight, pH 7.5): not cleaved

cleavage of GH by MMP-8 (MMP-8): no degrading effect
cleavage of GH by MMP-14 (MMP-14): no degrading effect
cleavage of GH by MMP-2 (MMP-2): no, or only minor, degradative effects
Compound: GH: Human GH, 22 kDa peptide hormone composed of a single polypeptide chain (SIGMA S-4776)
cleavage of GH by MMP-9 (MMP-9): not possible to prove cleavage; also recorded: no degrading effect
proliferation of HUVEC ([3]; 40 ng/ml): marked proliferative effect
cleavage of GH by MMP-3 (MMP-3 [2]; molar ratio 50:1, 37° C. overnight, pH 7.5): cleaved by MMP-3 into two fragments of 16 kDa and 6 kDa; also recorded: cleaves GH into the typical 16 kDa fragment

Compound: Isovaleryl-VV[Sta]A[Sta] [pepstatin A]
influence on GH cleavage by MMP-3 (MMP-3 [2]): no influence

Compound: bFGF: human recombinant bFGF (BIOCHROM), positive control [reference compound]
proliferation of HUVEC ([3]; 20 ng/ml): stimulates the proliferation
